Test results reported in the NIST ThermoML archive (doi:10.1016/j.jct.2012.12.001).

Test: heat capacity at constant pressure per volume; xn = mol fraction of the nth substance listed
Details: 101 kPa, Liquid, DSC, x2 = 0.713

CCCCCCCCCCCCCCCCCC [octadecane] + N#Cc1ccccc1
Details | heat capacity [J/K/m3]
311.31 K | 1755300
311.34 K | 1755200
311.37 K | 1751900
311.39 K | 1755200
311.42 K | 1754200
311.45 K | 1754700
311.48 K | 1751100
311.51 K | 1751000
311.54 K | 1753000
311.56 K | 1754300
311.59 K | 1755100
311.62 K | 1752800
311.65 K | 1748600
311.68 K | 1753400
311.7 K | 1751800
311.73 K | 1751000
311.76 K | 1752000
311.79 K | 1748500
311.82 K | 1747200
311.85 K | 1749600
311.87 K | 1749800
311.9 K | 1751600
311.93 K | 1750300
311.96 K | 1749700
311.99 K | 1747400
312.01 K | 1746900
312.04 K | 1752800
312.07 K | 1750900
312.1 K | 1745700
312.13 K | 1749200
312.15 K | 1747500
312.18 K | 1746000
312.21 K | 1746700
312.24 K | 1746500
312.27 K | 1747800
312.3 K | 1746300
312.32 K | 1744700
312.35 K | 1746400
312.38 K | 1744700
312.41 K | 1744900
312.44 K | 1743500
312.46 K | 1743700
312.49 K | 1747600
312.52 K | 1745100
312.55 K | 1746800
312.58 K | 1745400
312.6 K | 1744400
312.63 K | 1744300
312.66 K | 1743700
312.69 K | 1745000
312.72 K | 1743800
312.75 K | 1744000
312.77 K | 1743700
312.8 K | 1741400
312.83 K | 1742500
312.86 K | 1743700
312.88 K | 1745000
312.91 K | 1746300
312.94 K | 1744500
312.97 K | 1744100
313 K | 1743500
313.03 K | 1742300
313.05 K | 1742800
313.08 K | 1741900
313.11 K | 1742400
313.14 K | 1742800
313.17 K | 1739000
313.19 K | 1743700
313.22 K | 1740000
313.25 K | 1739100
313.28 K | 1738800
313.31 K | 1739500
313.33 K | 1740400
313.36 K | 1741400
313.39 K | 1740700
313.42 K | 1739700
313.45 K | 1740900
313.48 K | 1742600
313.5 K | 1740800
313.53 K | 1739000
313.56 K | 1737700
313.59 K | 1739600
313.62 K | 1740700
313.64 K | 1741100
313.67 K | 1740500
313.7 K | 1740400
313.73 K | 1741200
313.76 K | 1739900
313.79 K | 1739100
313.81 K | 1739300
313.84 K | 1739200
313.87 K | 1738900
313.9 K | 1738100
313.93 K | 1738700
313.95 K | 1735100
313.98 K | 1738800
314.01 K | 1737700
314.04 K | 1736700
314.07 K | 1735400
314.09 K | 1737000
314.12 K | 1736800
314.15 K | 1737300
314.18 K | 1733500
314.21 K | 1737800
314.24 K | 1735200
314.26 K | 1736900
314.29 K | 1735200
314.32 K | 1736400
314.35 K | 1737400
314.38 K | 1736600
314.4 K | 1738700
314.43 K | 1736600
314.46 K | 1737000
314.49 K | 1735500
314.52 K | 1735300
314.54 K | 1735400
314.57 K | 1735300
314.6 K | 1735500
314.63 K | 1734500
314.66 K | 1737100
314.68 K | 1735100
314.71 K | 1733900
314.74 K | 1734500
314.77 K | 1733900
314.8 K | 1737400
314.82 K | 1736200
314.85 K | 1735600
314.88 K | 1735100
314.91 K | 1734300
314.94 K | 1734100
314.96 K | 1733300
314.99 K | 1735100
315.02 K | 1735000
315.05 K | 1735200
315.08 K | 1732600
315.2 K | 1734500
315.38 K | 1734200
315.57 K | 1733800
315.76 K | 1733400
315.95 K | 1733200
316.14 K | 1733100
316.33 K | 1732700
316.52 K | 1732000
316.71 K | 1731600
316.9 K | 1731300
317.09 K | 1731000
317.28 K | 1730800
317.47 K | 1730300
317.66 K | 1730100
317.85 K | 1730000
318.03 K | 1729900
318.22 K | 1729800
318.41 K | 1729400
318.6 K | 1729300
318.79 K | 1729200
318.98 K | 1729000
319.17 K | 1728800
319.36 K | 1728600
319.55 K | 1728600
319.74 K | 1728300
319.93 K | 1728200
320.12 K | 1728000
320.31 K | 1728000
320.5 K | 1728000
320.68 K | 1728000
320.87 K | 1727900
321.06 K | 1727600
321.25 K | 1727500
321.44 K | 1727400
321.63 K | 1727200
321.82 K | 1727200
322.01 K | 1727300
322.2 K | 1727200
322.39 K | 1726900
322.58 K | 1726600
322.76 K | 1726900
322.95 K | 1726900
323.14 K | 1726800
323.33 K | 1726700
323.52 K | 1726500
323.71 K | 1726800
323.9 K | 1726900
324.09 K | 1726700
324.28 K | 1726700
324.47 K | 1726600
324.66 K | 1726600
324.85 K | 1726700
325.04 K | 1726500
325.23 K | 1726500
325.41 K | 1726500
325.6 K | 1726500
325.79 K | 1726500
325.98 K | 1726300
326.17 K | 1726400
326.36 K | 1726600
326.55 K | 1726500
326.74 K | 1726700
326.93 K | 1726700
327.12 K | 1726400
327.31 K | 1726600
327.5 K | 1726500
327.69 K | 1726700
327.87 K | 1726500
328.06 K | 1726500
328.25 K | 1726700
328.44 K | 1726900
328.63 K | 1726600
328.82 K | 1726700
329.01 K | 1726800
329.2 K | 1726900
329.39 K | 1726800
329.58 K | 1726700
329.77 K | 1726700
329.95 K | 1726800
330.14 K | 1726900
330.33 K | 1726900
330.52 K | 1726800
330.71 K | 1727000
330.9 K | 1727000
331.09 K | 1727200
331.28 K | 1727300
331.47 K | 1727100
331.66 K | 1727200
331.85 K | 1727200
332.04 K | 1727200
332.23 K | 1727200
332.42 K | 1727100
332.61 K | 1727100
332.79 K | 1727400
332.98 K | 1727300
333.17 K | 1727400
333.36 K | 1727300
333.55 K | 1727600
333.74 K | 1728000
333.93 K | 1727700
334.12 K | 1727800
334.31 K | 1727700
334.5 K | 1727900
334.69 K | 1728100
334.88 K | 1728200
335.06 K | 1728100
335.25 K | 1728100
335.44 K | 1728300
335.63 K | 1728300
335.82 K | 1728600
336.01 K | 1729000
336.2 K | 1729000
336.39 K | 1728800
336.58 K | 1729000
336.77 K | 1729100
336.96 K | 1729000
337.15 K | 1729000
337.34 K | 1729200
337.52 K | 1729100
337.71 K | 1729200
337.9 K | 1729200
338.09 K | 1729300
338.28 K | 1729700
338.47 K | 1729900
338.66 K | 1729900
338.85 K | 1729600
339.04 K | 1730200
339.23 K | 1730200
339.42 K | 1730600
339.61 K | 1730700
339.8 K | 1730900
339.99 K | 1730600
340.17 K | 1730800
340.36 K | 1730700
340.55 K | 1730900
340.74 K | 1731100
340.93 K | 1730900
341.12 K | 1730900
341.31 K | 1731200
341.5 K | 1731200
